Data as given in patent US4207318A, “Novel imidazobenzoxazines” (Roussel Uclaf, priority 1977, dated 1980).
Where two headings read alike, the source gives them in different places.

Test system: Passive cutaneous anaphylaxis
Assay: Passive cutaneous anaphylaxis (PCA) in rats
Type: in vivo
Conditions: Rattus norvegicus, read-out: ED50 (dose of drug giving 50% inhibition), dosed immediately prior to challenge, male rats, ovalbumen antigen
Description: Passive cutaneous anaphylaxis (PCA) in rats
The following compounds were tested for their physiological activity in the test: methyl 8-chloro-4H-imidazo-[2,1-c][1,4]-benzoxazine-2-carboxylate (compound A), methyl 8-methyl-4H-imidazo-[2,1-c][1,4]-benzoxazine-2-carboxylate (compound B), 8-chloro-4H-imidazo-[2,1-c][1,4]-benzoxazine-2-carboxylic acid (compound C), 7-methyl-4H-imidazo-[2,1-c][1,4]-benzoxazine-2-carboxylic acid (compound D), 8-chloro-7-methyl-4H-imidazo-[2,1-c][1,4]-benzoxazine-2-carboxylic acid (compound E), 6-methoxy-4H-imidazo-[2,1-c][1,4]-benzoxazine-2-carboxylic acid (compound F) and 8-methyl-4H-imidazo-[2,1-c][1,4]-benzoxazine-2-carboxylic acid (compound G).
Cutaneous anaphylaxis was induced in rats by intradermal (ID) sensitization with antiserum followed three days later by systemic challenge with antigen. Evans blue dye injected with the antigen is used as a marker to assess the severity of the local response. Anti-allergic drugs inhibit this reaction. This method has been described by OVARY (1962) "Passive Cutaneous Anaphylaxis in Allergology" Page 358-367 Ed. Brown: Pergamon Press. Animals: -male rats weighing 180-220 grams are used in groups of seven.
Preparation of Antigen for Sensitization (Alum precipitated ovalbumen)
1. Wash 120 grams of Al(OH)3 gel in 140 ml of saline (use of a macerater facilitates mixing).
2. Centrifuge at 3,000 rpm for about 10 minutes.
3. Resuspend the precipitate with 300 ml of albumen egg powder (1.3 mg/ml) in saline and allow to stand for 30 minutes.
4. Centrifuge at 3,000 rpm for 10 minutes.
5. Weigh the wet precipitate and to each gram weight add 1 ml of saline. Store in refrigerator (Quantity sufficient for 60 rats for a 3 day sensitization program).
Preparation of Antiserum (anti-ovalbumen)
1 ml of the alum precipitated ovalbumen was injected subcutaneously into rats weighing 180-200 grams on days 0,2,4. The rats were bled on day 14 either by cardiac puncture or via the dorsal abdominal aorta. Equal quantities of serum from each animal were pooled and thoroughly mixed and 2 ml aliquots were stored at -20° C. in plastic tubes.
The antiserum for sensitization was diluted so that an ID injection of 0.1 ml into control animals would give an average score of a single spot of between 2.0-3.5 using 5 point scoring system.
(A) SENSITIZATION: The rats were anaesthetized Nembutal (40-60 mg/kg i.p) and were then sensitized by four ID injections (0.1 ml each) on their shaved backs. The animals were then left for a period of three days to develop sensitization.
(B) […]: The sensitized rats were dosed orally or intraveneously with the drug immediately prior to intraveneous challenge via the superficial penile vein with 1 ml of an antigen/Evans blue mixture (1 mg albumen egg powder in 0.5 ml saline plus 0.5 ml of 1% Evans blue). The injections were speeded up by using an automatic 1 ml self-filling glass syringe. The "challenged" rats were killed after 30 minutes, (usually pithed) and their skin on the dorsal surface was removed. The degree and area of blueing, proportional to the anaphylactic reaction was assessed on a five point scoring system.
1. Total scores for sites 1,2,3 and 4=X
2. Mean value of X for each group=X
X c=X for control group [formula] 5.
ED50 values for the compounds tested in the passive cutaneous anaphylaxis screen (in rats) are as follows: […]

Compound | ED50 (P.O. (oral)) | ED50 (I.V. (intravenous))
COC(=O)c1cn2c(n1)COc1ccc(Cl)cc1-2 [A, methyl 8-chloro-4H-imidazo-[2,1-c][1,4]-benzoxazine-2-carboxylate] | 2.79 mg/kg | 
COC(=O)c1cn2c(n1)COc1ccc(C)cc1-2 [B, methyl 8-methyl-4H-imidazo-[2,1-c][1,4]-benzoxazine-2-carboxylate] | 1.46 mg/kg | 
O=C(O)c1cn2c(n1)COc1ccc(Cl)cc1-2 [C, 8-chloro-4H-imidazo-[2,1-c][1,4]-benzoxazine-2-carboxylic acid] | 0.13 mg/kg | 0.42 mg/kg
Cc1ccc2c(c1)OCc1nc(C(=O)O)cn1-2 [D, 7-methyl-4H-imidazo-[2,1-c][1,4]-benzoxazine-2-carboxylic acid] | 4 mg/kg | 0.39 mg/kg
Cc1cc2c(cc1Cl)-n1cc(C(=O)O)nc1CO2 [E, 8-chloro-7-methyl-4H-imidazo-[2,1-c][1,4]-benzoxazine-2-carboxylic acid] |  | 0.75 mg/kg
COc1cccc2c1OCc1nc(C(=O)O)cn1-2 [F, 6-methoxy-4H-imidazo-[2,1-c][1,4]-benzoxazine-2-carboxylic acid] |  | 3.27 mg/kg
Cc1ccc2c(c1)-n1cc(C(=O)O)nc1CO2 [G, 8-methyl-4H-imidazo-[2,1-c][1,4]-benzoxazine-2-carboxylic acid] | 0.37 mg/kg | 0.35 mg/kg
